Measurements as given in the supplement of paper PMC10307832.

What was measured:
Experiment in all cases: relative viability (nuclei count vs DMSO), 5 days (fraction); higher = more cells survive
Cediranib + Linsitinib = compound: COc1cc2c(Oc3ccc4[nH]c(C)cc4c3F)ncnc2cc1OCCCN1CCCC1 [Cediranib] + C[C@]1(O)C[C@@H](c2nc(-c3ccc4ccc(-c5ccccc5)nc4c3)c3c(N)nccn32)C1 [Linsitinib] (partner 1 µM)
Outline: (§1)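 Relative viability divides the nuclei count in treated wells by that in vehicle wells. Lung cancer cell lines were seeded in 1536-well plates, dosed by pin tool the next day, and fixed and stained after 5 days in one step with final 0.05% Triton X-100, 1% formaldehyde and 1 ug/ml Hoechst. Dosing was a single drug or a fixed anchor-drug dose plus five library-drug doses (not always all listed) in √10 steps, and values are medians of duplicate plates imaged at 4×.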

Cediranib + Olaparib = compound: COc1cc2c(Oc3ccc4[nH]c(C)cc4c3F)ncnc2cc1OCCCN1CCCC1 [Cediranib] + O=C(c1cc(Cc2n[nH]c(=O)c3ccccc23)ccc1F)N1CCN(C(=O)C2CC2)CC1 [Olaparib] (partner 8 µM)
Outline: as §1

Halofuginone + Alpelisib = compound: O=C(C[C@H]1NCCC[C@@H]1O)Cn1cnc2cc(Br)c(Cl)cc2c1=O (racemic) [Halofuginone] + Cc1nc(NC(=O)N2CCC[C@H]2C(N)=O)sc1-c1ccnc(C(C)(C)C(F)(F)F)c1 [Alpelisib] (partner 2 µM)
Outline: as §1

Halofuginone + Foretinib = compound: O=C(C[C@H]1NCCC[C@@H]1O)Cn1cnc2cc(Br)c(Cl)cc2c1=O (racemic) [Halofuginone] + COc1cc2c(Oc3ccc(NC(=O)C4(C(=O)Nc5ccc(F)cc5)CC4)cc3F)ccnc2cc1OCCCN1CCOCC1 [Foretinib] (partner 0.25 µM)
Outline: as §1

Row | Cell Line | relative viability (Cediranib + Linsitinib; first compound 0.04 µM) | relative viability (Cediranib + Linsitinib; first compound 0.4 µM) | relative viability (Cediranib + Linsitinib; first compound 1.265 µM) | relative viability (Cediranib + Linsitinib; first compound 4 µM) | relative viability (Cediranib + Olaparib; first compound 0.04 µM) | relative viability (Cediranib + Olaparib; first compound 0.1265 µM) | relative viability (Cediranib + Olaparib; first compound 0.4 µM) | relative viability (Cediranib + Olaparib; first compound 1.265 µM) | relative viability (Cediranib + Olaparib; first compound 4 µM) | relative viability (Halofuginone + Alpelisib; first compound 0.001 µM) | relative viability (Halofuginone + Alpelisib; first compound 0.003162 µM) | relative viability (Halofuginone + Alpelisib; first compound 0.01 µM) | relative viability (Halofuginone + Alpelisib; first compound 0.03162 µM) | relative viability (Halofuginone + Alpelisib; first compound 0.1 µM) | relative viability (Cediranib + Linsitinib; first compound 0.1265 µM) | relative viability (Halofuginone + Foretinib; first compound 0.001 µM) | relative viability (Halofuginone + Foretinib; first compound 0.003162 µM) | relative viability (Halofuginone + Foretinib; first compound 0.01 µM) | relative viability (Halofuginone + Foretinib; first compound 0.03162 µM) | relative viability (Halofuginone + Foretinib; first compound 0.1 µM)
1 | HCC-44 | 0.7 | 0.636 | 0.654 | 0.729 | 0.966 | 0.894 | 0.963 | 0.932 | 0.974 | 0.804 | 0.774 | 0.691 | 0.797 | 0.433 | – | – | – | – | – | –
2 | HCC-78 | 0.664 | 0.478 | 0.487 | 0.502 | 0.963 | 1.01 | 0.83 | 0.96 | 1.04 | 0.409 | 0.327 | 0.299 | 0.374 | 0.215 | 0.625 | 0.593 | 0.635 | 0.488 | 0.684 | 0.552
3 | HCC-366 | 0.65 | 0.582 | 0.542 | 1.05 | 0.413 | 0.354 | 0.392 | 0.362 | 0.395 | 0.369 | 0.412 | 0.449 | 0.385 | 0.197 | 0.634 | 0.952 | 0.973 | 0.876 | 1.02 | 0.514
4 | HCC-827 | 1.02 | 0.945 | 0.949 | 0.991 | 0.466 | 0.62 | 0.661 | 0.617 | 0.646 | 0.98 | 0.959 | 0.908 | 1.07 | 0.815 | – | 1.03 | 0.974 | 0.962 | 1.1 | 0.947
5 | HOP-62 | 1.11 | 1.04 | 0.853 | 1.18 | 0.385 | – | 0.425 | 0.503 | 0.688 | 0.992 | 1.03 | 0.902 | 1.04 | 0.423 | – | 1.09 | 1.22 | 1.02 | 0.96 | 0.704
6 | IA-LM | 0.629 | 0.586 | 0.436 | 0.634 | 0.993 | 0.848 | 0.824 | 0.867 | 1.02 | 0.829 | 0.982 | 0.664 | 0.606 | 0.161 | 0.772 | 1.29 | 1.03 | 1.08 | 0.982 | 0.07
7 | LC-2-ad | 0.871 | 0.842 | 0.771 | 0.806 | 0.737 | 0.689 | 0.664 | 0.732 | 0.839 | 0.952 | 0.847 | 0.861 | 0.772 | 0.334 | 0.831 | 0.928 | 0.973 | 0.866 | 1 | 0.497
8 | LCLC-97TM1 | 0.192 | 0.175 | 0.144 | 0.28 | 0.468 | – | 0.384 | 0.301 | 0.504 | 0.298 | 0.23 | 0.305 | 0.209 | 0.199 | – | 1.02 | 0.947 | 0.935 | 1.02 | 0.935
9 | LCLC-103H | 1.19 | 1.04 | 1.02 | 1.18 | 0.797 | 0.836 | 0.739 | 0.749 | 0.658 | 1.09 | 1.02 | 0.915 | 0.954 | 0.956 | 1.12 | 0.871 | 0.768 | 0.813 | 0.749 | 0.848
10 | LK-2 | 0.944 | 0.651 | 0.548 | 0.51 | 0.67 | 0.334 | 0.681 | 0.802 | 0.733 | 0.949 | 1.13 | 1.02 | 1.14 | 0.926 | 0.492 | 1.03 | 1.42 | 1.29 | 0.972 | 0.875
11 | LOU-NH91 | 0.905 | 0.915 | 0.969 | 0.759 | 0.972 | 0.936 | 0.88 | 0.908 | 0.86 | 0.774 | 0.731 | 0.721 | 0.741 | 0.64 | 1.2 | 0.985 | 0.917 | 0.887 | 0.925 | 0.949
12 | LU99A | 0.517 | 0.565 | 0.518 | 0.573 | 0.236 | – | 0.244 | 0.267 | 0.314 | 0.553 | 0.488 | 0.538 | 0.475 | 0.326 | – | 0.8 | 0.725 | 0.817 | 0.814 | 0.768
13 | NCI-H522 | – | – | – | – | 0.685 | 0.631 | 0.678 | 0.69 | 0.646 | – | – | – | – | – | – | – | – | – | – | –
14 | NCI-H1563 | 1.27 | 1.22 | 1.3 | 1.22 | – | – | – | – | – | 0.874 | 0.935 | 0.851 | 0.633 | 0.508 | 1.32 | 0.985 | 0.879 | 0.905 | 0.662 | 0.509
15 | NCI-H1623 | – | – | – | – | – | – | – | – | – | – | – | – | – | – | – | 0.888 | 0.895 | 0.954 | 0.876 | 0.536
16 | NCI-H1648 | – | – | – | – | 0.519 | 0.824 | 0.901 | 1.2 | 1.31 | – | – | – | – | – | – | – | – | – | – | –
17 | NCI-H1650 | – | – | – | – | 0.825 | 0.801 | 0.771 | 0.707 | 0.845 | – | – | – | – | – | – | 1.33 | 1.11 | 0.964 | 0.601 | 0.177
18 | NCI-H1792 | 0.61 | 0.535 | 0.674 | 0.574 | – | 0.713 | 0.321 | 0.435 | 0.557 | 0.795 | 0.724 | 0.702 | 0.662 | 0.686 | 0.701 | – | – | – | – | –
19 | NCI-H2170 | – | – | – | – | 0.575 | – | 0.533 | 0.598 | 0.726 | 0.863 | 0.846 | 0.799 | 0.681 | 0.656 | – | 0.987 | 1 | 0.968 | 0.478 | 1.03
20 | NCI-H2342 | – | – | – | – | 0.419 | 0.398 | 0.46 | 0.455 | 0.458 | – | – | – | – | – | – | 1.22 | 0.984 | 0.971 | 0.963 | 1.08
21 | SW 900 | – | – | – | – | 0.915 | 0.845 | 0.794 | 0.899 | 0.925 | – | – | – | – | – | – | 1.1 | 0.833 | 0.809 | 0.627 | 0.355
